Measurements: patent publication US20180353501A1 (Arvinas, Inc., priority 2017, published 2018)

What was measured:
[1] = target: T1, cMET (Homo sapiens, UniProt P08581); experiment: Cellular assay of target protein degradation (MDA-MB-231 cells, ELISA); type: cell-based
T1 construct: endogenous in cells; host or cells: MDA-MB-231
Method: (§1) Protocol of the cellular assay of target protein degradation (MDA-MB-231 cells, ELISA).
(§2) For detection Cell Signaling PathScan Sandwich ELISA Catalog#12850 was used. MDA-MB-231 cells and […] were cultured in ATCC DMEM+ATCC FBS and plated 40,000/well 100 μl/well in RPMI P/S with 5% CSS Omega (bovine) serum into a 96 well plate. The cells were grown for a minimum of 3 days, dosed with compounds in 0.1% DMSO (diluted with 5% CSS) and incubated with aspiration for 4 hours. 100 μl of 1× Cell Signaling lysis buffer #9803 (36 mL dH2O+4 mL Cell Signaling lysis buffer) was added. The incubation was placed on cold room shaker for 10 minutes at speed 8-9.5 μl to 100 μL of Diluent was transferred to ELISA plate (0.15 μg/mL-0.075 μg/mL) and stored at 4° C. overnight on cold room shaker speed 5 (gentle swirl) and then shaken next morning at 37° C. for 30 minutes. The preparation was washed 4×200 μl with ELISA wash buffer and aspirated with eight-channel aspirator. 100 μl/well of target protein detection antibody was added after, which the preparation was covered and shaken at 37° C. for 1 hour. 100 μl TMB was added, and the mixture was shaken for 5 min while under observation. When TMB turned light blue, 100 μl of Stop solution was added, and the mixture was shaken and read at 450 nm. Also read at 562 nm for background subtraction.

[2] = target: T2, His-p38δ (Homo sapiens, UniProt O15264); experiment: SPR binary affinity, compound on immobilized His-p38δ; type: binding; settings: for Kd: His-p38δ immobilized, read-out: PROTAC:p38δ Kd
T2 construct: encoding a region spanning amino acids 1-365 was PCR-amplified; made in house; host or cells: E. coli BL21-CodonPlus(DE3)-RIPL
T2 sequence (O15264 1-365): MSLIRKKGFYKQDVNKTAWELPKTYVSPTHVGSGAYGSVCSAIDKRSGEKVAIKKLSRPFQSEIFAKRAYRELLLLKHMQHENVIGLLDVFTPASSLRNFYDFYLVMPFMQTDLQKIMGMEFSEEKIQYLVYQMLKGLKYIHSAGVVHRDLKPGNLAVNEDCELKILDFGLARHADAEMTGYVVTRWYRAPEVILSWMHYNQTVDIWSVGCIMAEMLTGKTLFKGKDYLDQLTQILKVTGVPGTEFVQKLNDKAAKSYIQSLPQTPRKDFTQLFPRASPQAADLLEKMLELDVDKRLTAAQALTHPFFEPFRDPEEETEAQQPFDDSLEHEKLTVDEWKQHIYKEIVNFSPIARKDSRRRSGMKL
Method: FIGS. 16A, 16B, and 16C. SPR curves assessing binary and ternary interactions. […] Equimolar p38δ:PROTAC mixtures were injected onto immobilized GST-VBC and allowed to dissociate overtime. […] See Table 12 for a summary of the binary and ternary affinity and kinetic measurements. […] Next, with the same setup, equimolar p38δ:PROTAC dilutions were successively injected onto immobilized VHL for 60 seconds, prior to monitoring complex dissociation for the remaining 300 seconds. This SPR strategy enabled us to determine effective ternary affinities for a given p38δ:PROTAC:VHL complex and compare the relative affinity change that occurs between VHL:PROTAC when p38δ is present in the mixture. […] This p38δ region was cloned into a pET28a vector containing an N-terminal His6 tag using NheI and BamHI restriction sites. As before, BL21-CodonPlus(DE3)-RIPL E. coli cells (Agilent Technologies) were transformed with pET[…]6-p38delta and were selected in LB medium containing kanamycin (50 μg mL^1), chloramphenicol (15 μg mL^-1), and spectinomycin (50 μg mL^-1) at 37° C. until OD600=0.8. […] Pure fractions of p38δ were pooled, concentrated to 3 mg mL^-1, aliquoted, and flash-frozen before storing at -80° C. SPR experiments were conducted on a Biacore 3000 instrument (GE Healthcare) at room temperature. GST antibody was immobilized through direct amination onto a carboxymethylated dextran surface (CM5) and GST-VBC was captured on the CM5 surface. This prepared surface was equilibrated over three hours in running buffer (10 mM HEPES buffer pH 7.4, 150 mM NaCl, 0.4 mg mL^-1 BSA, 0.005% P20, 2% DMSO). All compounds were prepared in 100% DMSO stock plates with a top concentration of 500 μM in a 3× serial dilution. Exemplary compounds were transferred from the stock plate to the assay plate and diluted into running buffer without DMSO. Equimolar concentration of target protein was added to corresponding compound wells. All exemplary compounds were run as a twelve point-concentration series with a final assay top concentration of 50 μM to measure p38δ:PROTAC and VHL:PROTAC binding and top concentration of 5 μM to measure p38δ:PROTAC:VHL binding. All exemplary compounds were injected for 60 seconds and allowed to dissociate for 300 seconds. Data analysis was performed in Scrubber 2 (BioLogic Software). Blanks from reference flow cell containing immobilized GST-VBC were subtracted to correct for noise and data was solvent-corrected against a standard DMSO curve.

[3] = target: T3, p38δ (Homo sapiens, UniProt O15264); experiment: Cellular assay of target protein degradation (MDA-MB-231 cells, ELISA); type: cell-based; settings: for DC50: read-out: p38δDC50/nM [MDA-MB-231]
T3 construct: endogenous in cells; host or cells: MDA-MB-231 (intact cells for degradation; cleared cell lysate for CETSA)
T3 sequence (O15264 1-365): T2 sequence (O15264 1-365)
Method: as §1, §2

[4] = target: T4, p38α (Homo sapiens, UniProt Q16539); experiment: as above; type: cell-based
T4 construct: selectively degrades p38α, whereas exemplary PROTAC 46 (10-atom linker, phenyl attachment) selectively degrades p38δ in MDA-MB-231 cells; endogenous in cells; host or cells: MDA-MB-231
T4 sequence (Q16539 whole entry): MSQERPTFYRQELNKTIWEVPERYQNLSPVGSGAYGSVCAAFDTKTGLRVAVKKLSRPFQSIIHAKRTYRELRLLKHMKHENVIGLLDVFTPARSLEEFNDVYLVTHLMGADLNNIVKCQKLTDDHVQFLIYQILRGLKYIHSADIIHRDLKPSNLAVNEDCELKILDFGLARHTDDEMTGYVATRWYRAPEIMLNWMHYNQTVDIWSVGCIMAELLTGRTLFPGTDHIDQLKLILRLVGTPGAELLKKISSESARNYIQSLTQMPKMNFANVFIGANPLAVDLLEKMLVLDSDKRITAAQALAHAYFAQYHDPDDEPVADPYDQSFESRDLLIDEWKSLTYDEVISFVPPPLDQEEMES
Method: as §1, §2

T1 sequence (P08581 25-1390): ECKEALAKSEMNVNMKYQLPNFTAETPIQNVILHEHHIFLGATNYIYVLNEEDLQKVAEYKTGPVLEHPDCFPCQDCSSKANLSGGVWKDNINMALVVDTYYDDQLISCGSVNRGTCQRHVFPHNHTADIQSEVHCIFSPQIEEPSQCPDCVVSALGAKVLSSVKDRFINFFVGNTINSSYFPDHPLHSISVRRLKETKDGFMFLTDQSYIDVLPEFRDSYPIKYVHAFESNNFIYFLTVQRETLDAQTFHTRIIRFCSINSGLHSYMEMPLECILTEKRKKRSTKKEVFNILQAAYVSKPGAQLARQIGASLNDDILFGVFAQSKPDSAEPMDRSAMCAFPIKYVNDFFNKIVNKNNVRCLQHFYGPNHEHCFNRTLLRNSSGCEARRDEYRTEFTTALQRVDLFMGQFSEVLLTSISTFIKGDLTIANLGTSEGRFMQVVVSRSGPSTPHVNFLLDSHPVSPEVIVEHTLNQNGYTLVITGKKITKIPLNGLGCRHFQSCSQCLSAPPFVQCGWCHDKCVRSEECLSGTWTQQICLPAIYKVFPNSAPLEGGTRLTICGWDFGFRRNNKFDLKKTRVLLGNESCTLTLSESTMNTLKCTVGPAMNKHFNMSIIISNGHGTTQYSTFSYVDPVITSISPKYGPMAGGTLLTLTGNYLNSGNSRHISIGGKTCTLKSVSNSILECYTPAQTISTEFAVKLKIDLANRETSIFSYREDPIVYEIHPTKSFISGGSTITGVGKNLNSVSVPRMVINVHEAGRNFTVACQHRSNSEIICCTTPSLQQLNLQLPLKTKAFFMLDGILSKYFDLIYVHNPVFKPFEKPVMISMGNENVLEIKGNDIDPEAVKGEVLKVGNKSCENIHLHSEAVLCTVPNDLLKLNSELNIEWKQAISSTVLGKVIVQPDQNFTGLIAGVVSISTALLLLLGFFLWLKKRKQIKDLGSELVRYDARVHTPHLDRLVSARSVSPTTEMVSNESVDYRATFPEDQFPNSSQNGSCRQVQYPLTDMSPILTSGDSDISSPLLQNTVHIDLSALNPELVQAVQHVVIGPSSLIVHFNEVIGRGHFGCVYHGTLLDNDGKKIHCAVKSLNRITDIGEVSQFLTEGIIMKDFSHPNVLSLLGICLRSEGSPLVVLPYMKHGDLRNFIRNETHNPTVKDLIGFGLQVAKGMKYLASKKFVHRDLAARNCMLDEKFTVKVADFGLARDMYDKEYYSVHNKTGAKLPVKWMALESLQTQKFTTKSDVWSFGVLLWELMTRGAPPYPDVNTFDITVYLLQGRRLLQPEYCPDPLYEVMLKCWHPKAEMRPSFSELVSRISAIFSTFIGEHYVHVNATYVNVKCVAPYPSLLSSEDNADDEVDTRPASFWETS

| c-Met protein degradation (dose response) ([1]; ELISA) | Structure (SMILES) | loss of affinity for p38δ compared to the PTM (foretinib) [2] | Kd [2] [nM] | Dmax [3] [%] | DC50 [3] [nM] | DC50 [4] [nM] | Dmax [4] [%] | DC50 [1] [nM] | Dmax [1] [%] |
| --- | --- | --- | --- | --- | --- | --- | --- | --- | --- |
| significant targeted degradation | COc1cc2c(Oc3ccc(NC(=O)C4(C(=O)Nc5ccc(F)cc5)CC4)cc3F)ccnc2cc1OCCCOCCCOCCC(=O)N[C@H](C(=O)N1C[C@H](O)C[C@H]1C(=O)NCc1ccc(-c2scnc2C)cc1)C(C)(C)C [Example 1] |  |  |  |  |  |  |  |  |
|  | COc1cc2c(Oc3ccc(NC(=O)C4(C(=O)Nc5ccc(F)cc5)CC4)cc3F)ccnc2cc1OCCOCCOCCOc1cc(-c2scnc2C)ccc1CNC(=O)[C@@H]1C[C@@H](O)CN1C(=O)[C@H](C(C)C)N1Cc2ccccc2C1=O [compound 46] | about 2 fold | 550 | 93 | 84.9 | > 5000 | 33 |  |  |
|  | COc1cc2c(Oc3ccc(NC(=O)C4(C(=O)Nc5ccc(F)cc5)CC4)cc3F)ccnc2cc1OCCCCOCCCCOCC(=O)N[C@H](C(=O)N1C[C@H](O)C[C@H]1C(=O)NCc1ccc(-c2scnc2C)cc1)C(C)(C)C [compound 50, N-(3-fluoro-4-((7-(4-(4-(2-(((S)-1-((2S,4R)-4-hydroxy-2-((4-(4-methylthiazol-5-yl)benzyl)carbamoyl)pyrrolidin-1-yl)-3,3-dimethyl-1-oxobutan-2-yl)amino)-2-oxoethoxy)butoxy)buto-xy)-6-methoxyquinolin-4-yl)oxy)phenyl)-N-(4-fluorophenyl)cyclopropane-1,1-dicarboxa-mide] | about 2 fold | 500 | 18 | > 5000 | 9.5 | 99 | 36 | 88 |
